Results taken from US11925632B2, “Isoquinoline derivatives for use in treating GLUT1 deficiency syndrome” (GLIAPHARM SA, priority 2019, dated 2024).
pEC50: −log10 of the molar value.

Legend:
[1] = tested on: astrocytes; assay: Extracellular medium acidification (SNARF5) assay in astrocytes; assay type: cell-based; details: Mus musculus, Astrocyte, 1.5 h; astrocytes in vitro, 90 min stimulation, 10 nM to 30 μM
Experimental: Secretion of lactate was measured indirectly through the acidification of extracellular medium using extracellular pH sensor SNARE-5F-(AND-6)-CAR (SNARF5) as described below.
Secretion of lactate was measured indirectly through the acidification of extracellular medium using extracellular pH sensor […] (SNARF5). After washing cells twice with stimulation medium (DMEM (D5030, Sigma), 1 mM […], and 5 mM Glucose, pH 7.4) at 37° C., cells were stimulated with compounds at a final concentration ranging from 10 nM to 30 μM in 50 μl per well of stimulation medium supplemented with 10 μM of SNARF5 (Life Technologies Corporation). Each compound was tested in two different plates for duplicates. After 90 min stimulation, fluorescence was read at exc. (excitation) 480 nm/emm. (emission) 580 nm and at exc 480 nm/emm. 630 nm. The ratio of fluorescence between 630 nm and 580 emission values, which is proportional to extracellular pH, was calculated. In each plate, 8 wells were used for negative controls (DMSO 0.1%) and 8 wells were used for positive controls (CCCP 2 μM in DMSO).
Table 3 below lists compounds that are active on the extracellular medium acidification (SNARF5) assay in astrocytes in vitro, which indicates their ability to produce lactate. ‘+’ indicates activity of compounds with EC50>5 μM; ‘++’ indicates activity of compounds with EC50<5 μM.
Primary cultures of cerebrocortical astrocytes were obtained from 1 to 2-day-old OF1 mouse pups (Charles River). Briefly, cortices were isolated and minced in small pieces under a dissecting microscope. The cells were incubated for 30 min at 37° C. in a solution containing 20 U/ml papain, 1 mM L-cysteine and 10 kU/ml DNase I. After dissociation, papain activity was stopped by the addition of fetal calf serum (FCS). Single-cell suspension was then obtained by mechanical dissociation, which consisted in cells trituration in a DMEM D7777 medium supplemented with 44 mm NaHCO3, 10 ml/L antibiotic/antimycotic solution and 10% FCS. The cells were seeded at an average density of ˜10′000 cells/cm^2 on poly-D-lysine coated 96- or 12-well culture plates, depending on their use, and grown in DMEM D7777 medium supplemented with 44 mm NaHCO3, 10 ml/L antibiotic/antimycotic solution and 10% FCS at 37° C. in a humidified atmosphere containing 5% CO2/95% air. Culture medium was renewed twice a week. Cells were stimulated and harvested between DIV14 and DIV17, when confluence and cell growth were optimal.

[2] = tested on: C57Bl/6 wild-type mice; assay: Long-term memory test, inhibitory avoidance (IA); assay type: in vivo, mouse
Experimental: For pharmacodynamics (FIG. 5) and cognition (FIG. 7) experiments, adult male C57Bl/6J wild-type mice weighting 18-28 g (8 weeks of age) were used (Charles River). For ALS mouse models (FIG. 6), G93A SOD1 transgenic male and female mice on B6.SJL1-Gur/J background were used (Jackson Laboratory).
Animals were housed in groups of 3-5 in polypropylene cages (30×40×15 cm) with wire mesh top in a temperature (22±2° C.) and humidity (55±15%) controlled environment on a 12 hour light cycle (07.00-19.00 h lights on), except after surgeries when animal were housed individually. The samples (Vehicle or compounds of the invention) were administered per os (gavage) in a solution made of water supplemented with 0.4% hydroxypropyl methylcellulose (HPMC) Methocel 4KM (w/v) and 0.25% Tween-20 (v/v), as previously described (Thackaberry et al., 2010, Toxicol Sci., 117(2):485-92). Concentrations of the compounds tested ranged from 10 to 100 mg/kg.
IA test is a well-established memory paradigm in rodents that measures contextual memory associated with a mild electrical footshock in a specific context (the dark compartment of the IA chamber). Groups of 8-week old C57Bl/6 wild-type female mice were tested. Each mouse was handled for 5 minutes per day for at least 4 consecutive days to reduce animal's stress due to experimenter's presence/manipulation during test days. Inhibitory avoidance was carried out in an IA chamber (MedAssociates) that consists in a rectangular Perspex box divided into a safe and a shock compartment separated by an automatically operated sliding door. […] Memory retention was measured at 24 h or 3 weeks after training by placing the mouse back into the lit compartment and recording its latency (in seconds) to enter the dark compartment. […]
Memory was measured after oral administration of vehicle or compound (1) (100 mg/kg) to young adult male mice orally, and 20 min later a training for IA (FIG. 7). 24 hours and 3 weeks after training, latencies of mice to enter back into the dark compartment of the IA chamber, the place where they received the shock, were measured.

[3] = single dose 100 mg/kg oral before training, vs vehicle

For `COc1cc2ccnc(Nc3ccc(OC(F)(F)F)cc3)c2cc1OC` [Example 1, 6,7-dimethoxy-N-(4-(trifluoromethoxy)phenyl)isoquinolin-1-amine], the pEC50 [1] was < 5.30, the “Latency to enter the dark compartment at training” value ([2]; 100 mg/kg oral, 20 min before training) was “same latencies at training” and the “Latency to enter the dark compartment, 3 weeks after training” value [2, 3] was “significantly higher”. For the same molecule, the “Latency to enter the dark compartment, 24 h after training” value [2, 3] was “significantly higher”.
